Usually inhibition stands for the drop in the measured response relative to a control, in per cent.

The record followed here is US8435978B2, “Substituted sulfonamide compounds” (Gruenenthal GmbH, priority 2006, dated 2013).

One test concerns the target T1, B1R receptor of the rat (Rattus norvegicus, UniProt P97583).
T1 construct: host or cells: CHO K1 cells (Chinese hamster ovary), stably transfected
T1 sequence (P97583 1-337): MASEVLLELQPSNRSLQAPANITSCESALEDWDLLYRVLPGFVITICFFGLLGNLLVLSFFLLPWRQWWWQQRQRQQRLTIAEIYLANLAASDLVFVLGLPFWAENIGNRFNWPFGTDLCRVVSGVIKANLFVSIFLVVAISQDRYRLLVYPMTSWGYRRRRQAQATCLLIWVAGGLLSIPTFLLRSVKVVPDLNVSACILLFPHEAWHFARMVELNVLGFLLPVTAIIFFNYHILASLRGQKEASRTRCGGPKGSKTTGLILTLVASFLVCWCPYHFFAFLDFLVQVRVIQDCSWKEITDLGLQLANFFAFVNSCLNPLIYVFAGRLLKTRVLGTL
As to the kind of experiment: Functional study on the bradykinin receptor 1 (B1R), FLIPR Ca2+ assay, rB1R cells. Particulars: agonist Des-Arg9-bradykinin 100 nM, % inhibition compared with the maximum achievable inhibition, read-out: B1R Antagonism, rat [10 μM] % Inhibition. The class given is cell-based. In outline: (§1)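 FLIPR Ca2+ assay in recombinant CHO K1 cells (human or rat B1R), Fluo-4 dye; 10 μM compound, 10 min, then EC-level agonist per species (0.5 nM Lys-Des-Arg9-BK human / 100 nM Des-Arg9-BK rat). Output: % inhibition vs maximum.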

A further test addresses T2, human B1R receptor (Homo sapiens, UniProt P46663).
T2 construct: host or cells: CHO K1 cells (Chinese hamster ovary), stably transfected
T2 sequence (P46663 1-353): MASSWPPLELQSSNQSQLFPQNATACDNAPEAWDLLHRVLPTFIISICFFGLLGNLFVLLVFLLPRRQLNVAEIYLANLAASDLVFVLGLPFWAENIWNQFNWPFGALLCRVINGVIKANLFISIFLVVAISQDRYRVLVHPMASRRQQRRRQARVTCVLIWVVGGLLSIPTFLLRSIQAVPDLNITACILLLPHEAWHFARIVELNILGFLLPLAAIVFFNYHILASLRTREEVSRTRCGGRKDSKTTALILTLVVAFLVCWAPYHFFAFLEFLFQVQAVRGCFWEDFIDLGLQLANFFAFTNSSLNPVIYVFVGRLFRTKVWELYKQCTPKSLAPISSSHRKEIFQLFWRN
As to the kind of experiment: Functional study on the bradykinin receptor 1 (B1R), FLIPR Ca2+ assay, hB1R cells. The class given is cell-based. Particulars: agonist Lys-Des-Arg9-bradykinin 0.5 nM, % inhibition compared with the maximum achievable inhibition, read-out: B1R Antagonism, human [10 μM] % Inhibition. Put shortly:
as §1

SMILES strings stand for the structures. Counter-ions that a name gives are not always drawn. Like-named read-outs stand apart in the source and are kept apart here.

Turning to `COc1cc(C)c(S(=O)(=O)N2CCCCC2COCC(=O)N2CCc3cnccc3C2)c(C)c1` (centres unmarked) [Example 96, 1-(3,4-dihydro-2,6-naphthyridin-2(1H)-yl)-2-((1-(4-methoxy-2,6-dimethylphenyl-sulfonyl)piperidin-2-yl)methoxy)ethanone hydrochloride], the inhibition at 10 µM on B1R receptor of the rat (test substance 10 μM, rB1R CHO K1 cells) was found to be 91.3%; at human B1R receptor (test substance 10 μM, hB1R CHO K1 cells) it was 105%.

On to `O=C(COCC1CCCCN1S(=O)(=O)c1c(Cl)cccc1Cl)N1CCN(Cc2ccc(Cl)c(Cl)c2)CC1` (centres unmarked) [Example 405, 1-(4-(3,4-dichlorobenzyl)piperazin-1-yl)-2-((1-(2,6-dichlorophenylsulfonyl)piperidin-2-yl)methoxy)ethanone], for which the inhibition at 10 µM was found to be 100% at B1R receptor of the rat (CHO-K1, test substance 10 μM) and 98.6% at human B1R receptor (CHO-K1, test substance 10 μM).

On to `CN(C)c1ccc(C2CCCN2C(=O)COCC2CCCCN2S(=O)(=O)c2c(Cl)cccc2Cl)cc1` (centres unmarked) [Example 528, 2-((1-(2,6-dichlorophenylsulfonyl)piperidin-2-yl)methoxy)-1-(2-(4-(dimethylamino)phenyl)pyrrolidin-1-yl)ethanone], for which the inhibition at 10 µM on B1R receptor of the rat (CHO-K1, test substance 10 μM) is 102%; on human B1R receptor (CHO-K1, test substance 10 μM), 88.2%.

As to `COc1ccc(S(=O)(=O)N2c3ccccc3CC2COCC(=O)NCC2CCCN(Cc3ccccc3)C2)cc1` (centres unmarked) [Example 422, N-((1-benzylpiperidin-3-yl)methyl)-2-((1-(4-methoxyphenylsulfonyl)indolin-2-yl)methoxy)acetamide], the inhibition at 10 µM at B1R receptor of the rat (CHO-K1, test substance 10 μM) is 98.6%; at human B1R receptor (CHO-K1, test substance 10 μM) it was 48%.

For the molecule `CN1CCN(Cc2ccc(CNC(=O)COCC3CCCN3S(=O)(=O)c3c(Cl)cc(Cl)cc3Cl)cc2)CC1` (centres unmarked) [Example 45, N-[4-(4-methyl-piperazin-1-ylmethyl)-benzyl]-2-[1-(2,4,6-trichloro-phenylsulfonyl)-pyrrolidin-2-ylmethoxy]-acetamide], the inhibition at 10 µM came to 92.4% on B1R receptor of the rat (CHO-K1, test substance 10 μM) and 69.1% at human B1R receptor (CHO-K1, test substance 10 μM).

Consider `COc1cc(C)c(S(=O)(=O)N2CCCC[C@H]2COCC(=O)N2CCC(Oc3ccncc3)CC2)c(C)c1` [Example 186, (S)-2-((1-(4-methoxy-2,6-dimethylphenylsulfonyl)piperidin-2-yl)methoxy)-1-(4-(pyridin-4-yloxy)piperidin-1-yl)ethanone hydrochloride], for which the inhibition at 10 µM at B1R receptor of the rat (CHO-K1, test substance 10 μM) came to 97.1%; on human B1R receptor (CHO-K1, test substance 10 μM) it was 106%.

With `COc1cc(C)c(S(=O)(=O)N2CCCC2COCC(=O)N2CCN(c3ccc(Cl)c(Cl)c3)CC2)c(C)c1` (centres unmarked) [Example 348, 1-(4-(3,4-dichlorophenyl)piperazin-1-yl)-2-((1-(4-methoxy-2,6-dimethylphenylsulfonyl)pyrrolidin-2-yl)methoxy)ethanone], the inhibition at 10 µM at B1R receptor of the rat (CHO-K1, test substance 10 μM) turned out to be 103%; at human B1R receptor (CHO-K1, test substance 10 μM) it was 87.1%.

`COc1cc(C)c(S(=O)(=O)N2CCCCC2COCC(=O)Nc2ccc(N3CCOCC3)cc2)c(C)c1` (centres unmarked) [Example 438, 2-((1-(4-methoxy-2,6-dimethylphenylsulfonyl)piperidin-2-yl)methoxy)-N-(4-morpholinophenyl)acetamide]: the inhibition at 10 µM at B1R receptor of the rat (CHO-K1, test substance 10 μM) is 100%; at human B1R receptor (CHO-K1, test substance 10 μM), 22.1%.

For the molecule `COc1cc(C)c(S(=O)(=O)N2CCCCC2COCC(=O)N(C)CCN(C)C)c(C)c1` (centres unmarked) [Example 379, N-(2-(dimethylamino)ethyl)-2-((1-(4-methoxy-2,6-dimethylphenylsulfonyl)piperidin-2-yl)methoxy)-N-methylacetamide], the inhibition at 10 µM at B1R receptor of the rat (CHO-K1, test substance 10 μM) came out at 102%; at human B1R receptor (CHO-K1, test substance 10 μM) it was 67.9%.

Regarding `CN1CCC(N2CCN(C(=O)COCC3Cc4ccccc4CN3S(=O)(=O)c3ccc4ccccc4c3)CC2)CC1` (centres unmarked) [Example 178, 1-(4-(1-methylpiperidin-4-yl)piperazin-1-yl)-2-((2-(naphthalen-2-ylsulfonyl)-1,2,3,4-tetrahydroisoquinolin-3-yl)methoxy)ethanone dihydrochloride], the inhibition at 10 µM on B1R receptor of the rat (CHO-K1, test substance 10 μM) is 99.8%; at human B1R receptor (CHO-K1, test substance 10 μM), 102%.

Consider `Cc1cccc(Cl)c1S(=O)(=O)N1CCCCC1COCC(=O)N1CCN(C2CCN(C)CC2)CC1` (centres unmarked) [Example 109, 2-((1-(2-chloro-6-methylphenylsulfonyl)piperidin-2-yl)methoxy)-1-(4-(1-methylpiperidin-4-yl)piperazin-1-yl)ethanone], for which the inhibition at 10 µM is 102% at B1R receptor of the rat (CHO-K1, test substance 10 μM) and 103% on human B1R receptor (CHO-K1, test substance 10 μM).

In the case of `CC(C)N(CCN1CCN(C(=O)COCC2CCCCN2S(=O)(=O)c2c(Cl)cc(Cl)cc2Cl)CC1)C(C)C` (centres unmarked) [Example 254, 1-(4-(2-(diisopropylamino)ethyl)piperazin-1-yl)-2-((1-(2,4,6-trichlorophenylsulfonyl)piperidin-2-yl)methoxy)ethanone], the inhibition at 10 µM at B1R receptor of the rat (CHO-K1, test substance 10 μM) is 97.8%; on human B1R receptor (CHO-K1, test substance 10 μM), 105%.

For `COc1cc(C)c(S(=O)(=O)N2CCCCC2COCC(=O)N2CCN(Cc3cnc(N(C)C)nc3)CC2)c(C)c1` (centres unmarked) [Example 199, 1-(4-((2-(dimethylamino)pyrimidin-5-yl)methyl)piperazin-1-yl)-2-((1-(4-methoxy-2,6-dimethylphenylsulfonyl)piperidin-2-yl)methoxy)ethanone], the inhibition at 10 µM on B1R receptor of the rat (CHO-K1, test substance 10 μM) amounted to 101%; at human B1R receptor (CHO-K1, test substance 10 μM), 104%.

For the molecule `COc1cc(C)c(S(=O)(=O)N2CCCCC2COCC(=O)Nc2ccc(CN3CCCCC3)cc2)c(C)c1` (centres unmarked) [Example 419, 2-((1-(4-methoxy-2,6-dimethylphenylsulfonyl)piperidin-2-yl)methoxy)-N-(4-(piperidin-1-ylmethyl)phenyl)acetamide], the inhibition at 10 µM at B1R receptor of the rat (CHO-K1, test substance 10 μM) came to 101%; at human B1R receptor (CHO-K1, test substance 10 μM), 100%.

Take `COc1cc(C)c(S(=O)(=O)N2CCCCC2COCC(=O)NC(C)Cn2cccn2)c(C)c1` (centres unmarked) [Example 426, N-(1-(1H-pyrazol-1-yl)propan-2-yl)-2-((1-(4-methoxy-2,6-dimethylphenylsulfonyl)piperidin-2-yl)methoxy)acetamide]: the inhibition at 10 µM is 94.4% at B1R receptor of the rat (CHO-K1, test substance 10 μM) and -4.95% at human B1R receptor (CHO-K1, test substance 10 μM).

For `O=C(COCC1CCCN1S(=O)(=O)c1c(Cl)cc(Cl)cc1Cl)N(C1CC1)C1CCN(Cc2ccccc2)CC1` (centres unmarked) [Example 334, N-(1-benzylpiperidin-4-yl)-N-cyclopropyl-2-((1-(2,4,6-trichlorophenylsulfonyl)pyrrolidin-2-yl)methoxy)acetamide], the inhibition at 10 µM at B1R receptor of the rat (CHO-K1, test substance 10 μM) amounted to 101%; at human B1R receptor (CHO-K1, test substance 10 μM), 107%.

With `Cc1cc(Br)cc(C)c1S(=O)(=O)N1CCCCC1COCC(=O)N1CCN(C2CCN(C)CC2)CC1` (centres unmarked) [Example 148, 2-((1-(4-bromo-2,6-dimethylphenylsulfonyl)piperidin-2-yl)methoxy)-1-(4-(1-methylpiperidin-4-yl)piperazin-1-yl)ethanone], the inhibition at 10 µM at B1R receptor of the rat (CHO-K1, test substance 10 μM) is 100%; on human B1R receptor (CHO-K1, test substance 10 μM), 100%.

With `CN1CCN(C2CCN(C(=O)COCC3CCCN3S(=O)(=O)c3c(Cl)cc(Cl)cc3Cl)CC2)CC1` (centres unmarked) [Example 330, 1-(4-(4-methylpiperazin-1-yl)piperidin-1-yl)-2-((1-(2,4,6-trichlorophenylsulfonyl)pyrrolidin-2-yl)methoxy)ethanone], the inhibition at 10 µM on B1R receptor of the rat (CHO-K1, test substance 10 μM) came out at 100%; on human B1R receptor (CHO-K1, test substance 10 μM) it was 104%.

In the case of `COc1cc(C)c(S(=O)(=O)N2CCCC2COCC(=O)NC(CN2CCOCC2)c2ccccc2)c(C)c1` (centres unmarked) [Example 500, 2-((1-(4-methoxy-2,6-dimethylphenylsulfonyl)pyrrolidin-2-yl)methoxy)-N-(2-morpholino-1-phenylethyl)acetamide], the inhibition at 10 µM worked out at 93.2% on B1R receptor of the rat (CHO-K1, test substance 10 μM) and 41.8% at human B1R receptor (CHO-K1, test substance 10 μM).
